Values quoted from earlier work, collected in patent US20210123869A1, “METHOD FOR MEASURING PH OF TEST WATER” (MIURA CO., LTD., priority 2018, published 2021).

Conditions: value at 25° C.; two values for reagents acid-dissociated in two stages

acid dissociation constant (pKa)	Molecule
4.7	Cc1c(C2(c3cc(Br)c(O)c(Br)c3C)OS(=O)(=O)c3ccccc32)cc(Br)c(O)c1Br [bromocresol green]
6.3	Cc1cc(C2(c3cc(C)c(O)c(Br)c3)OS(=O)(=O)c3ccccc32)cc(Br)c1O [bromocresol purple]
11.06	alizarin yellow
